Data set [1] has as its system mice. Description: BAL differential cell counts after exposure to inhaled CRYSMEB (Table 1). The data set is classed as in vivo, mouse. On the procedure: Mices were sacrificed and a bronchoalveolar lavage was performed using 4×1 ml PBS-EDTA 0.05 mM (Calbiochem, Darmstadt, Germany) as previously described by Cataldo D D, Tournoy K G, Vermaelen K et al. in Am J Pathol 2002; 161(2):491-498. Cells were recovered by gentle manual aspiration. After centrifugation of bronchoalveolar fluid (BALF) (1200 rpm for 10 minutes, at 4° C.), the supernatant was frozen at −80° C. for protein assessment and the cell pellet was resuspended in 1 ml PBS-EDTA 0.05 mM. The differential cell counts were performed on cytocentrifuged preparations (Cytospin) after staining with Diff-Quick (Dade, Belgium). […]

Data set [2] has as its system OVA exposed mice. Description: Peribronchial inflammation score by histology, OVA mouse model. Format: in vivo. On the procedure: (§1) In order to study modulation of airway inflammation, males BALB/c mice of 6 to 8 weeks old were sensitized by intraperitoneal injection of 10 μg ovalbumin (OVA) (Sigma Aldrich, Schnelldorf, Germany) emulsified in aluminum hydroxyde (AlumInject; Perbio, Erembodegem, Belgium) on days 1 and 8. Mice were subsequently exposed to allergens by daily inhalation of an aerosol of OVA 1%, for 30 minutes, generated by ultrasonic nebulizer (Devilbiss 2000), from day 21 to 27. […] Mice were sacrificed performed on day 28 as previously reported by Cataldo and al in Am. J. Pathol 2002; 161(2):491-498.
(§2) After BAL, the thorax was opened and the left main bronchus was clamped. The left lung was excised and frozen immediately at −80° C. for protein and mRNA extraction. The right lung was infused with 4 ml paraformaldehyde 4%, embedded in paraffin and used for histology. Sections of 5 μm thickness were cut off from paraffin and were stained with haematoxylin-eosin. The extent of peribronchial inflammation was estimated by a score calculated by quantification of peribronchial inflammatory cells, as previously described by Cataldo D D, Tournoy K G, Vermaelen K et al. in Am J Pathol 2002; 161(2):491-498. A value of 0 was adjudged when no inflammation was detectable, a value of 1 when there was occasionally inflammatory cells, a value of 2 when most bronchi were surrounded by a thin layer (1 to 5 cells) of inflammatory cells and a value of 3 when most bronchi were surrounded by a thick layer (>5 cells) of inflammatory cells. Since 5-7 randomly selected tissue sections per mouse were scored, inflammation scores are expressed as a mean value and can be compared between groups. After Congo Red staining, the eosinophilic infiltration in the airway walls was quantified by manual count and reported to the perimeter of epithelial basement membrane defining an eosinophilic inflammatory score.

The subject of data set [3] is IL-13. Nature of the data set: IL-13 ELISA in BAL and lung protein extracts, OVA mouse model. Format: in vivo. On the procedure: (§3) In order to study modulation of airway inflammation, males BALB/c mice of 6 to 8 weeks old were sensitized by intraperitoneal injection of 10 μg ovalbumin (OVA) (Sigma Aldrich, Schnelldorf, Germany) emulsified in aluminum hydroxyde (AlumInject; Perbio, Erembodegem, Belgium) on days 1 and 8. Mice were subsequently exposed to allergens by daily inhalation of an aerosol of OVA 1%, for 30 minutes, generated by ultrasonic nebulizer (Devilbiss 2000), from day 21 to 27. Mice were subjected to inhalation of β-CD, HP-β-CD HP 1, 7.5, 50 mM and HP-β-CD 50 mM 30 minutes before OVA inhalation. Mice were sacrificed performed on day 28 as previously reported by Cataldo and al in Am. J. Pathol 2002; 161(2):491-498.
The left lung was crushed using a Mikro-Dismembrator (Braun Biotech International, Gmbh Melsungen, Germany). For proteins extraction, the crushed lung tissue was incubated overnight at 4° C. in a solution containing 2M urea, 1M NaCl and 50 mM Tris (pH 7.5) and subsequently centrifuged 15 minutes at 16.000×g. The supernatant was stored at −80° C.
Eotaxin and IL-13 levels were assessed using commercial ELISAs (R&D systems, Abingdon, UK). Eotaxin was measured by incubation in a wheel coated with a primary antibody specifically dedicated to the recognition of the protein and after rinsing, a second antibody against eotaxin, coupled with horse radish peroxydase was used to quantify the amounts of eotaxin in the solution
IL-13 was measured by incubation in a wheel coated with a primary antibody specifically dedicated to the recognition of the protein and after rinsing, a second antibody against IL-13, coupled with horse radish peroxydase was used to quantify the amounts of […] in the solution.
(In general: ELISA stands for enzyme-linked immunosorbent assay.)

Data set [4] has as its system OVA exposed mice. Description: Bronchial responsiveness to methacholine (Penh, barometric plethysmograph). The settings on record: FIG. 10. Format: in vivo, mouse. On the procedure: as §1
Twenty-four hours after the last allergen exposure, the bronchial hyper responsiveness was determined by measuring the Penh (Enhanced Pause) using a barometric plethysmograph (Emka technologies, Paris) as proposed by Hamelmann, E., et al., Am. J. Respir. Crit. Care Med. 156 (1997) 766-775). The Penh was measured at baseline and […] after the inhalation of increasing doses (25, 50, 75 and 100 mM) of methacholine (Mch).

The test system of data set [5] is OVA exposed mice. Nature of the data set: Bronchoalveolar lavage differential cell counts, OVA mouse model of asthma. The data set is classed as in vivo. Particulars: for Eosinophils (%) in BAL / Epithelial cells (%) in BAL / Lymphocytes (%) in BAL / Macrophages (%) in BAL / Neutrophils (%) in BAL / Total cells (10^4/ml) in BAL: Table 2. On the procedure:
as §3
Immediately after assessment of airway responsiveness, and 24 hours after the last allergen exposure.
Mices were sacrificed and a bronchoalveolar lavage was performed using 4×1 ml PBS-EDTA 0.05 mM (Calbiochem, Darmstadt, Germany) as previously described by Cataldo D D, Tournoy K G, Vermaelen K et al. in Am J Pathol 2002; 161(2):491-498. Cells were recovered by gentle manual aspiration. After centrifugation of bronchoalveolar fluid (BALF) (1200 rpm for 10 minutes, at 4° C.), the supernatant was frozen at −80° C. for protein assessment and the cell pellet was resuspended in 1 ml PBS-EDTA 0.05 mM. The differential cell counts were performed on cytocentrifuged preparations (Cytospin) after staining with Diff-Quick (Dade, Belgium).

The subject of data set [6] is OVA exposed mice. Nature of the data set: Peribronchial eosinophil infiltration (Congo Red), OVA mouse model. Particulars: after allergen exposure; FIG. 3. Format: in vivo. How it is done:
as §3, §2

Where [7] appears, read: exposure to aerosolized CRYSMEB 30 min/day during 7 days.
Setting [8] is: reference therapy, concentration not given.

This note sets out measurements from patent publication US9034846B2, “Use of cyclodextrin for treatment and prevention of bronchial inflammatory diseases” (UNIVERSITE DE LIEGE, priority 2004, dated 2015).

Turning to 2-O-methyl βcyclodextrin [CRYSMEB], in data set [1] (setting [7]), the “cellular composition of the bronchoalveolar lavage” value is listed as “not significantly altered”; the “eosinophil and neutrophil counts in BAL” value was “no differences”. Moreover, in data set [1] (inhaled 20 mM), the “Eosinophils (%) in BAL” value is 0.0375 ± 0.0375%, the “Epithelial cells (%) in BAL” value is reported as 29.9 ± 5.909%, the “Lymphocytes (%) in BAL” value is 0.425 ± 0.1485% and the “Macrophages (%) in BAL” value was 69.5 ± 5.956%. Besides, in data set [1] (inhaled 20 mM), the “Neutrophils (%) in BAL” value stood at 0.0375 ± 0.1061%. Besides, in data set [1] (inhaled 50 mM), the “Eosinophils (%) in BAL” value turned out to be 0.1125 ± 0.0789%, the “Epithelial cells (%) in BAL” value worked out at 36.1375 ± 4.52%, the “Lymphocytes (%) in BAL” value worked out at 0.275 ± 0.1161% and the “Macrophages (%) in BAL” value is 63.1625 ± 4.695%. In data set [1] (inhaled 50 mM), the “Neutrophils (%) in BAL” value came out at 0.2 ± 0.3505%. In data set [1] (inhaled 75 mM), the “Eosinophils (%) in BAL” value stood at 0.0375 ± 0.0375%, the “Epithelial cells (%) in BAL” value was 30.8875 ± 1.349%, the “Lymphocytes (%) in BAL” value came to 0.075 ± 0.0491% and the “Macrophages (%) in BAL” value worked out at 68.9 ± 1.334%. In addition, the “Neutrophils (%) in BAL” value in data set [1] (inhaled 75 mM) turned out to be 0.0375 ± 0.1061%. In addition, the peribronchial inflammation score result in data set [2] (20 mM, compared to placebo, FIG. 9A) was “decreased inflammation score”. Also, the “levels of IL-13 in whole lung protein extracts” value in data set [3] (FIG. 11) is recorded as “significantly decreased”. The “methacholine-induced Penh increase” value in data set [4] (10 mM inhalation) is “reduced”. For the same compound, in data set [4] (after allergen exposure, extent comparable to fluticasone), the responsiveness to methacholine result was “significantly reduced”. Also, the Bronchoalveolar lavage eosinophilia entry in data set [5] (Example 2, treated groups vs placebo) was “significantly decreased”. For the same compound, in data set [5] (10 mM), the “Eosinophils (%) in BAL” value was determined as 8.84 ± 2.946 %, the “Epithelial cells (%) in BAL” value is 36.83 ± 5.644%, the “Lymphocytes (%) in BAL” value is given as 0.214 ± 0.1079% and the “Macrophages (%) in BAL” value amounted to 52.714 ± 6.49%. For the same compound, in data set [5] (10 mM), the “Neutrophils (%) in BAL” value was 1.26 ± 0.4587% and the “Total cells (10^4/ml) in BAL” value was 131.93 ± 33.637 10^4/ml.

Consider `C[C@@H]1C[C@H]2[C@@H]3C[C@H](F)C4=CC(=O)C=C[C@]4(C)[C@@]3(F)[C@@H](O)C[C@]2(C)[C@@]1(O)C(=O)SCF` [Fluticasone, reference compound], for which, in data set [5] (setting [8]), the “Eosinophils (%) in BAL” value is 32.92 ± 7.306 %, the “Epithelial cells (%) in BAL” value was 22.85 ± 5.343%, the “Lymphocytes (%) in BAL” value was 1.68 ± 0.7115% and the “Macrophages (%) in BAL” value was 40.52 ± 3.122%. Also, in data set [5] (setting [8]), the “Neutrophils (%) in BAL” value came out at 1.85 ± 1.093% and the “Total cells (10^4/ml) in BAL” value is given as 75.92 ± 11.922 10^4/ml.

Consider `OC[C@H]1O[C@@H]2O[C@H]3[C@H](O)[C@@H](O)[C@@H](O[C@H]4[C@H](O)[C@@H](O)[C@@H](O[C@H]5[C@H](O)[C@@H](O)[C@@H](O[C@H]6[C@H](O)[C@@H](O)[C@@H](O[C@H]7[C@H](O)[C@@H](O)[C@@H](O[C@H]8[C@H](O)[C@@H](O)[C@@H](O[C@H]1[C@H](O)[C@H]2O)O[C@@H]8CO)O[C@@H]7CO)O[C@@H]6CO)O[C@@H]5CO)O[C@@H]4CO)O[C@@H]3CO` [β-CD, β-cyclodextrin], for which the peribronchial inflammation score result in data set [2] (concentration not given, FIG. 2) was “did not reduce”. Also, the peribronchial eosinophil infiltration entry in data set [6] is recorded as “decrease reached statistical significance”. For the same compound, the “IL-13 levels in BAL” value in data set [3] (FIG. 7b) was “increased”. Besides, the “number of eosinophils in BAL” value in data set [5] (after allergen exposure, concentration not given, FIG. 1) is on record as “tendency to increase”.
